Test results taken from patent US20110152267A1, “Compositions and Methods for Treating Hyperproliferative Disorders” (Texas Tech University System, priority 2009, published 2011).

Columns and labels:
Assay type in all cases: cell-based, human
[1] = tested on: GBM2 glioblastoma brain cancer cell line; test: DIMSCAN cytotoxicity dose-response with fenretinide, with or without D-threo-PPMP (Examples A, FIGS. 3, 9, 14, 18-20); details: +96 hrs; for C.I. of D-threo-PPMP with fenretinide+L-threo-sphinganine (three drug combination): 2% oxygen, D-threo-PPMP fixed 10 uM, at most doses; for C.I. (Combination Index) with fenretinide: at one or more doses
Description: (§1) Cytotoxicity Assay: Cytotoxicity in cell lines was determined using a fluorescence-based assay employing digital imaging microscopy (DIMSCAN)(after Fragala, et al, Mol Cancer Ther, 6:886-897, 2007). DIMSCAN quantitates viable cells which selectively accumulate fluorescein diacetate and is capable of measuring cytotoxicity over a 4-5 log dynamic range by quantifying total fluorescence per well (which is proportional to viable, clonogenic cells) after eliminating background fluorescence using digital thresholding and eosin Y quenching. Briefly, cell lines were seeded into 96-well plates in 100 µL of complete culture medium (10-20% serum) per well. Cells were incubated overnight in 2%, 5% or 20% oxygen (room air) prior to addition of drugs in […] volumes of complete medium to various final drug concentrations in replicates of 12 wells per concentration. In assays employing D-threo-PPMP, PPMP was employed at a fixed, minimally-toxic, final concentration of 10 μM in each well. Control wells received ethanol (final concentration=0.12%-0.20%) in complete medium equivalent to the maximum final ethanol concentration of drug-treated wells. Plates were incubated at various oxygen concentrations to simulate physiological hypoxia (i.e., 2% oxygen=typical solid tumor oxygen levels; 5%=bone marrow oxygen levels for leukemias; 20% room air=supraphysiological oxygen for comparison with typical laboratory culture conditions). Plates were assayed at 3-4 days after initiating drug exposure depending on the growth properties of each cell line, to allow for maximum cell death and outgrowth of surviving cells. To measure cytotoxicity, FDA (stock solution of 1 mg/ml in DMSO) was added, in 50 µL of complete medium per well, to a final concentration of 10 µg/ml. The plates were incubated for an additional 15-30 minutes at 37 C and then 30 µL of eosin Y (0.5% in normal saline) was added per well. Total fluorescence of each well was then measured using digital imaging microscopy.
(§2) FIGS. 1 to 26 illustrate the effect (Examples A1 through A26) of the claimed invention and were carried out using the procedures disclosed herein.

[2] = tested on: HT-29 colon cancer cell line; test: DIMSCAN cytotoxicity dose-response with fenretinide, with or without D-threo-PPMP (Examples A, FIGS. 4, 10, 15, 21-23); details: +96 hrs; for C.I. (Combination Index) with fenretinide: at one or more doses; for C.I. of D-threo-PPMP with fenretinide+L-threo-sphinganine (three drug combination): D-threo-PPMP fixed 10 uM, at most doses
Description: as §1, §2

[3] = tested on: CHLA-266 brain cancer (PNET) cell line; test: DIMSCAN cytotoxicity dose-response with fenretinide (Examples A, FIGS. 2, 8, 13); details: 2% oxygen, at one or more doses, +96 hrs
Description: as §1, with “microscopy. […]” for “microscopy.”

[4] = tested on: COG-LL-317 Acute Lymphoblastic Leukemia (ALL) cancer cell line; test: DIMSCAN cytotoxicity dose-response with fenretinide (Examples A, FIGS. 5, 11, 17); details: 5% oxygen, at one or more doses, +96 hrs
Description: as §1, with “microscopy. […]” for “microscopy.”

[5] = tested on: MCF-7/ADR (OVCAR-8/ADR) ovarian cancer cell line; test: DIMSCAN cytotoxicity dose-response with fenretinide (Examples A, FIG. 16); details: 2% oxygen, at one or more doses, +96 hrs
Description: Cytotoxicity Assay: Cytotoxicity in cell lines was determined using a fluorescence-based assay employing digital imaging microscopy (DIMSCAN)(after Fragala, et al, Mol Cancer Ther, 6:886-897, 2007). DIMSCAN quantitates viable cells which selectively accumulate fluorescein diacetate and is capable of measuring cytotoxicity over a 4-5 log dynamic range by quantifying total fluorescence per well (which is proportional to viable, clonogenic cells) after eliminating background fluorescence using digital thresholding and eosin Y quenching. Briefly, cell lines were seeded into 96-well plates in 100 µL of complete culture medium (10-20% serum) per well. Cells were incubated overnight in 2%, 5% or 20% oxygen (room air) prior to addition of drugs in […] volumes of complete medium to various final drug concentrations in replicates of 12 wells per concentration. In assays employing D-threo-PPMP, PPMP was employed at a fixed, minimally-toxic, final concentration of 10 μM in each well. Control wells received ethanol (final concentration=0.12%-0.20%) in complete medium equivalent to the maximum final ethanol concentration of drug-treated wells. […] Total fluorescence of each well was then measured using digital imaging microscopy. […]

CCCCCCCCCCCCCC[C@H](O)[C@@H](N)CO [C17, (2S,3S)-2-amino-1,3-heptadecanediol]
< 1: C.I. of D-threo-PPMP with fenretinide+L-threo-sphinganine (three drug combination) [1] | C.I. (Combination Index) with fenretinide [1] | C.I. (Combination Index) with fenretinide ([2]; 2% oxygen) | C.I. of D-threo-PPMP with fenretinide+L-threo-sphinganine (three drug combination) ([2]; 20% oxygen) | C.I. (Combination Index) with fenretinide [3] | C.I. (Combination Index) with fenretinide [4]

CCCCCCCCCCCCCCCC[C@H](O)[C@@H](N)CO [C19, (2S,3S)-2-amino-1,3-nonadecanediol]
< 1: C.I. of D-threo-PPMP with fenretinide+L-threo-sphinganine (three drug combination) [1] | C.I. (Combination Index) with fenretinide [1] | C.I. of D-threo-PPMP with fenretinide+L-threo-sphinganine (three drug combination) ([2]; 20% oxygen) | C.I. (Combination Index) with fenretinide ([2]; oxygen not stated) | C.I. (Combination Index) with fenretinide [3] | C.I. (Combination Index) with fenretinide [4]

CCCCCCCCCCCCCCCCC[C@H](O)[C@@H](N)CO [C20, (2S,3S)-2-amino-1,3-icosanediol]
< 1: C.I. of D-threo-PPMP with fenretinide+L-threo-sphinganine (three drug combination) [1] | C.I. (Combination Index) with fenretinide [1] | C.I. (Combination Index) with fenretinide [5] | C.I. of D-threo-PPMP with fenretinide+L-threo-sphinganine (three drug combination) ([2]; 2% oxygen) | C.I. (Combination Index) with fenretinide ([2]; oxygen not stated) | C.I. (Combination Index) with fenretinide [3] | C.I. (Combination Index) with fenretinide [4]
